Results on three compounds are retold here after patent US6596762B2, “Antioxidant compositions and use for treatment of hepatic steatosis and steatohepatitis” (The Regents of The University of Colorado, priority 2001, dated 2003).

Each structure is given as a SMILES string.

The test system of series [1] is isolated rat liver mitochondria. In words: Protection of isolated liver mitochondria against toxic bile acids. An excerpt: (§1) Beta carotene and other carotenoids also function as antioxidants in tissues with low oxygen content (such as the liver) and the present inventor has shown beta carotene to have a protective role in hepatic mitochondria that prevents processes that generate oxygen free radicals (unpublished data). […] (Sokol et al., Hepatology 2001;34(2):277A, incorporated herein by reference in its entirety).

Series [2] deals with isolated human liver mitochondria. The description is as above.
Source text: as §1

Series [3] relates to fat-laden hepatocytes from obese Zucker (fa/fa) rats. In words: Cell necrosis (%LDH release) of isolated hepatocytes exposed to GCDC. The settings on record: fat-laden cells, 100 μM GCDC × 3 hours. It counts as cell-based, rat. The procedure: (§2) Briefly, 8-week-old obese Zucker (fa/fa) rats (Zucker rat model of hepatic steatosis) and lean (Fa/?) litter-mates were sacrificed. Liver blood tests and liver histology were obtained, and hepatocytes isolated by the recirculating collagenase perfusion technique. Initial trypan blue exclusion exceeded 94%. Cells were incubated in suspension with glycochenodeoxycholic acid (GCDC) (0,-1000 μM) in Krebs-Ringer-HEPES for 4 hours. Aliquots of cells were removed hourly for determination of: (1) hydroperoxide generation measured by fluorescence of dichlorofluororescin diacetate (DCF-DA) that was preloaded into hepatocytes; (2) %LDH release as a measure of cell necrosis; and (3) DAPI fluorescence microscopy of fixed cells to quantify apoptosis. Liver histology was quantitated using a grading system.
Background: LDH leaks from cells whose membrane has failed.

Series [4] deals with lean hepatocytes from lean (Fa/?) Zucker litter-mates. The description is as above. The note with it: lean cells, 100 μM GCDC × 3 hours. It counts as cell-based, rat. The procedure:
as §2

The subject of series [5] is fat-laden hepatocytes from obese Zucker (fa/fa) rats. In words: Hydroperoxide generation (DCF-DA fluorescence) in isolated hepatocytes exposed to GCDC. The format is cell-based, rat. The note with it: fat-laden cells exposed to GCDC, compared with lean cells. The procedure:
as §2

The test system is the same in series [6]. In words: Apoptosis by DAPI fluorescence microscopy of isolated hepatocytes exposed to GCDC. It counts as cell-based, rat. The settings on record: fat-laden cells, 100 μM GCDC × 3 hours. The procedure:
as §2

Series [7] deals with lean hepatocytes from lean (Fa/?) Zucker litter-mates. Described as above. The format is cell-based, rat. The settings on record: lean cells, 100 μM GCDC × 3 hours. The procedure: as §2
Another series deals with children with NASH. The settings on record: oral vitamin E 400 to 1200 IU per day, during therapy; cited from earlier work.
The subject of the next series is fat-laden hepatocytes. Kind of series: Protection of fat-laden liver cells exposed to bile acids. The format is cell-based, rat. The settings on record: fat-laden liver cells exposed to relatively low concentrations of bile acids. The source says: The antioxidants in this mixture were chosen for the following scientific reasons. […] Briefly, fat-laden hepatocytes were isolated from the Zucker rat model of hepatic steatosis and from lean littermate Zucker rats. […] Without being bound by theory, the present inventor believes that the fatty liver is more prone to hepatocyte necrosis and thus is at risk for severe injury from minor and major insults. […] Studies from the present inventor's laboratory have shown that the effect of vitamin E is probably mediated through reduction of free radical production from mitochondria (Yerushalmi et al., Hepatology 2001; 33:616-26, incorporated herein by reference in its entirety).

`CC1=C(/C=C/C(C)=C/C=C/C(C)=C/C=C/C=C(C)/C=C/C=C(C)/C=C/C2=C(C)CCCC2(C)C)C(C)(C)CCC1` [beta carotene]: the “mitochondrial swelling and injury induced by toxic bile acids” value is “protects the mitochondria from swelling and injury” in series [1]; “protects the mitochondria from swelling and injury” in series [2]. Further, the “production of free radicals” value in [1] (toxic bile acids) and in [2] (toxic bile acids) was “markedly diminishes the production of free radicals” in each case.

As for `CC(CCC(=O)NCC(=O)O)C1CCC2C3C(O)CC4CC(O)CCC4(C)C3CCC12C` (centres unmarked) [GCDC, glycochenodeoxycholic acid], the entries for the “necrosis (%LDH release)” value in [3] and in series [4] were 54% and 24%, respectively. In [5], the generation of hydroperoxides entry is “trend was present towards increased generation of hydroperoxides”. The apoptosis in series [6] is on record as 8%; in series [7] it was 31%.

With `Cc1c(C)c2c(c(C)c1O)CC[C@@](C)(CCC[C@H](C)CCC[C@H](C)CCCC(C)C)O2` [alpha tocopherol], the “serum AST and ALT” value with children with NASH is “reduced”. Further, the “oxidative stress and hepatocyte cell death” value in the series with fat-laden hepatocytes was “will prevent oxidative stress and hepatocyte cell death”.
